Patent US12077503B2, “Substituted cyclic amides and their use as herbicides” (FMC CORPORATION, priority 2015, dated 2024)

Key:
Format in all cases: in vivo
[1] = tested on: sedge, umbrella (small-flower umbrella sedge, Cyperus difformis); experiment: Test C flooded paddy test; conditions: Flood; for Plant response rating (scale of 0 to 100), Sedge, Umbrella: 0 is no effect, 100 is complete control
Summary of the method: (§1)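 Visual 0–100 injury rating versus controls (0 = no effect, 100 = complete control) at 13 to 15 d. 2-leaf-stage plants; pots flooded 3 cm over soil surface, test compound added to paddy water; greenhouse.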

[2] = tested on: ducksalad (Heteranthera limosa); experiment: Test C flooded paddy test; conditions: Flood; for Plant response rating (scale of 0 to 100), Ducksalad: 0 is no effect, 100 is complete control
Summary of the method: as §1

[3] = tested on: wheat, winter (winter wheat, Triticum aestivum); experiment: Test D preemergence; conditions: scale 0 to 100
Text: (§2) Seeds of plant species selected from bluegrass (annual bluegrass, Poa annua), blackgrass (Alopecurus myosuroides), canarygrass (littleseed canarygrass, Phalaris minor), chickweed (common chickweed, Stellaria media), Galium (catchweed bedstraw, Galium aparine), bromegrass, downy (downy bromegrass, Bromus tectorum), field poppy (Papaver rhoeas), field violet (Viola arvensis), foxtail, green (green foxtail, Setaria viridis), deadnettle (henbit deadnettle, Lamium amplexicaule), ryegrass, Italian (Italian ryegrass, Lolium multiflorum), Kochia (Kochia scoparia), lambsquarters (Chenopodium album), oilseed rape (Brassica napus), pigweed (Amaranthus retroflexus), chamomile (scentless chamomile, Matricaria inodora), Russian thistle (Salsola kali), speedwell (bird's-eye speedwell, Veronica persica), barley, spring (spring barley, Hordeum vulgare), wheat, spring (spring wheat, Triticum aestivum), buckwheat, wild (wild buckwheat, Polygonum convolvulus), mustard, wild (wild mustard, Sinapis arvensis), oat, wild (wild oat, Avena fatua), radish, wild (wild radish, Raphanus raphanistrum), windgrass (Apera spica-venti), barley, winter (winter barley Hordeum vulgare), and wheat, winter (winter wheat, Triticum aestivum) were planted into a silt loam soil and treated preemergence with test chemicals formulated in a non-phytotoxic solvent mixture which included a surfactant.
(§3) Treated plants and controls were maintained in a controlled growth environment approximately 21 d after which time all species were compared to controls and visually evaluated. Plant response ratings, summarized in Table D, are based on a scale of 0 to 100 where 0 is no effect and 100 is complete control. A dash (-) response means no test result.

[4] = tested on: Galium (catchweed bedstraw, Galium aparine); experiment: Test D preemergence; conditions: scale 0 to 100
Text: as §2, §3

[5] = tested on: oat, wild (wild oat, Avena fatua); experiment: Test D preemergence; conditions: scale 0 to 100
Text: as §2, §3

[6] = tested on: Russian thistle (Salsola kali); experiment: Test D preemergence; conditions: scale 0 to 100
Text: as §2, §3

Kochia (Kochia scoparia) = experiment: Test D preemergence; conditions: scale 0 to 100
Text: as §2, §3

[7] = tested on: oilseed rape (Brassica napus); experiment: Test D preemergence; conditions: scale 0 to 100
Text: as §2, §3

[8] = tested on: mustard, wild (wild mustard, Sinapis arvensis); experiment: Test D preemergence; conditions: scale 0 to 100
Text: as §2, §3

[9] = tested on: buckwheat, wild (wild buckwheat, Polygonum convolvulus); experiment: Test D preemergence; conditions: scale 0 to 100
Text: as §2, §3

[10] = tested on: chamomile (scentless chamomile, Matricaria inodora); experiment: Test D preemergence; conditions: scale 0 to 100
Text: as §2, §3

[11] = tested on: pigweed (Amaranthus retroflexus); experiment: Test D preemergence; conditions: scale 0 to 100
Text: as §2, §3

[12] = tested on: barley, spring (spring barley, Hordeum vulgare); experiment: Test D preemergence; conditions: scale 0 to 100
Text: as §2, §3

[13] = tested on: wheat, spring (spring wheat, Triticum aestivum); experiment: Test D preemergence; conditions: scale 0 to 100
Text: as §2, §3

[14] = tested on: deadnettle (henbit deadnettle, Lamium amplexicaule); experiment: Test D preemergence; conditions: scale 0 to 100
Text: as §2, §3

[15] = tested on: radish, wild (wild radish, Raphanus raphanistrum); experiment: Test D preemergence; conditions: scale 0 to 100
Text: as §2, §3

[16] = tested on: ryegrass, Italian (Italian ryegrass, Lolium multiflorum); experiment: Test D preemergence; conditions: scale 0 to 100
Text: as §2, §3

[17] = tested on: bromegrass, downy (downy bromegrass, Bromus tectorum); experiment: Test D preemergence; conditions: scale 0 to 100
Text: as §2, §3

[18] = tested on: chickweed (common chickweed, Stellaria media); experiment: Test D preemergence; conditions: scale 0 to 100
Text: as §2, §3

[19] = 31 g ai/ha, scale 0 to 100 (0 no effect, 100 complete control), 13 to 15 d

## O=C1NCC(c2cccc(OC(F)(F)C(F)F)c2)C1C(=O)Nc1ccccc1F (racemic) [Compound 695]
[1]; [19]
  Plant response rating, Sedge, Umbrella: 0
[1]; 62 g ai/ha
  Plant response rating (scale of 0 to 100), Sedge, Umbrella: 0
[1]; 125 g ai/ha
  Plant response rating (scale of 0 to 100), Sedge, Umbrella: 0
[1]; 250 g ai/ha
  Plant response rating (scale of 0 to 100), Sedge, Umbrella: 0
[2]; [19]
  Plant response rating, Ducksalad: 30
[2]; 62 g ai/ha
  Plant response rating (scale of 0 to 100), Ducksalad: 50
[2]; 125 g ai/ha
  Plant response rating (scale of 0 to 100), Ducksalad: 80
[2]; 250 g ai/ha
  Plant response rating (scale of 0 to 100), Ducksalad: 100

## CN1CC(c2ccc(C(F)(F)F)cc2)C(C(=O)Nc2ccccc2S(C)(=O)=O)C1=O (stereo not drawn) [Compound 624]
[3]; 31 g ai/ha
  Plant response rating: Wheat, Winter: 0
[3]; 62 g ai/ha
  Plant response rating: Wheat, Winter: 0
[3]; 125 g ai/ha
  Plant response rating: Wheat, Winter: 5
[3]; 250 g ai/ha
  Plant response rating: Wheat, Winter: 10
[4]; 31 g ai/ha
  Plant response rating: Galium: 0
[4]; 62 g ai/ha
  Plant response rating: Galium: 0
[4]; 125 g ai/ha
  Plant response rating: Galium: 0
[4]; 250 g ai/ha
  Plant response rating: Galium: 0
[5]; 31 g ai/ha
  Plant response rating: Oat, Wild: 0
[5]; 62 g ai/ha
  Plant response rating: Oat, Wild: 5
[5]; 125 g ai/ha
  Plant response rating: Oat, Wild: 15
[5]; 250 g ai/ha
  Plant response rating: Oat, Wild: 35
[6]; 31 g ai/ha
  Plant response rating: Russian Thistle: 0
[6]; 62 g ai/ha
  Plant response rating: Russian Thistle: 30
[6]; 125 g ai/ha
  Plant response rating: Russian Thistle: 10
[6]; 250 g ai/ha
  Plant response rating: Russian Thistle: 50
Kochia (Kochia scoparia); 31 g ai/ha
  Plant response rating: Kochia: 0
Kochia (Kochia scoparia); 62 g ai/ha
  Plant response rating: Kochia: 5
Kochia (Kochia scoparia); 125 g ai/ha
  Plant response rating: Kochia: 15
Kochia (Kochia scoparia); 250 g ai/ha
  Plant response rating: Kochia: 85
[7]; 31 g ai/ha
  Plant response rating: Oilseed Rape: 0
[7]; 62 g ai/ha
  Plant response rating: Oilseed Rape: 25
[7]; 125 g ai/ha
  Plant response rating: Oilseed Rape: 35
[7]; 250 g ai/ha
  Plant response rating: Oilseed Rape: 65
[8]; 31 g ai/ha
  Plant response rating: Mustard, Wild: 15
[8]; 62 g ai/ha
  Plant response rating: Mustard, Wild: 30
[8]; 250 g ai/ha
  Plant response rating: Mustard, Wild: 70
[9]; 31 g ai/ha
  Plant response rating: Buckwheat, Wild: 0
[9]; 62 g ai/ha
  Plant response rating: Buckwheat, Wild: 0
[9]; 125 g ai/ha
  Plant response rating: Buckwheat, Wild: 15
[9]; 250 g ai/ha
  Plant response rating: Buckwheat, Wild: 50
[10]; 31 g ai/ha
  Plant response rating: Chamomile: 0
[10]; 62 g ai/ha
  Plant response rating: Chamomile: 95
[10]; 125 g ai/ha
  Plant response rating: Chamomile: 90
[10]; 250 g ai/ha
  Plant response rating: Chamomile: 100
[11]; 31 g ai/ha
  Plant response rating: Pigweed: 35
[11]; 62 g ai/ha
  Plant response rating: Pigweed: 80
[11]; 125 g ai/ha
  Plant response rating: Pigweed: 95
[11]; 250 g ai/ha
  Plant response rating: Pigweed: 98
[12]; 31 g ai/ha
  Plant response rating: Barley, Spring: 0
[12]; 62 g ai/ha
  Plant response rating: Barley, Spring: 0
[12]; 125 g ai/ha
  Plant response rating: Barley, Spring: 5
[12]; 250 g ai/ha
  Plant response rating: Barley, Spring: 40
[13]; 31 g ai/ha
  Plant response rating: Wheat, Spring: 5
[13]; 62 g ai/ha
  Plant response rating: Wheat, Spring: 10
[13]; 125 g ai/ha
  Plant response rating: Wheat, Spring: 15
[13]; 250 g ai/ha
  Plant response rating: Wheat, Spring: 40
[14]; 31 g ai/ha
  Plant response rating: Deadnettle: 0
[14]; 62 g ai/ha
  Plant response rating: Deadnettle: 0
[14]; 125 g ai/ha
  Plant response rating: Deadnettle: 25
[14]; 250 g ai/ha
  Plant response rating: Deadnettle: 70
[15]; 31 g ai/ha
  Plant response rating: Radish, Wild: 0
[15]; 125 g ai/ha
  Plant response rating: Radish, Wild: 0
[15]; 250 g ai/ha
  Plant response rating: Radish, Wild: 75
[16]; 31 g ai/ha
  Plant response rating: Ryegrass, Italian: 0
[16]; 62 g ai/ha
  Plant response rating: Ryegrass, Italian: 0
[16]; 125 g ai/ha
  Plant response rating: Ryegrass, Italian: 25
[16]; 250 g ai/ha
  Plant response rating: Ryegrass, Italian: 25
[17]; 31 g ai/ha
  Plant response rating: Bromegrass, Downy: 0
[17]; 62 g ai/ha
  Plant response rating: Bromegrass, Downy: 10
[17]; 125 g ai/ha
  Plant response rating: Bromegrass, Downy: 20
[17]; 250 g ai/ha
  Plant response rating: Bromegrass, Downy: 20
[18]; 31 g ai/ha
  Plant response rating: Chickweed: 15
[18]; 125 g ai/ha
  Plant response rating: Chickweed: 60
[18]; 250 g ai/ha
  Plant response rating: Chickweed: 85

## CN1CC(c2cccc(OC(F)F)c2)C(C(=O)Nc2ccccc2F)C1=O (stereo not drawn) [Compound 618]
[1]; 31 g ai/ha
  Plant response rating (scale of 0 to 100), Sedge, Umbrella: 0
[1]; 62 g ai/ha
  Plant response rating (scale of 0 to 100), Sedge, Umbrella: 0
[1]; 125 g ai/ha
  Plant response rating (scale of 0 to 100), Sedge, Umbrella: 0
[1]; 250 g ai/ha
  Plant response rating (scale of 0 to 100), Sedge, Umbrella: 0
[2]; 31 g ai/ha
  Plant response rating (scale of 0 to 100), Ducksalad: 60
[2]; 62 g ai/ha
  Plant response rating (scale of 0 to 100), Ducksalad: 60
[2]; 125 g ai/ha
  Plant response rating (scale of 0 to 100), Ducksalad: 95
[2]; 250 g ai/ha
  Plant response rating (scale of 0 to 100), Ducksalad: 100
